Patent US20260364184A1, “COMPOUND BASED ON OXOISOINDOLINYL-SUBSTITUTED TETRAHYDROPYRIMIDINE-DIONE AND USE THEREOF” (GLUETACS THERAPEUTICS (SHANGHAI) CO., LTD., priority 2023, published 2026)
Read-outs that look alike come from different tables or passages of the source. One block for each compound: values may come before it.

Assays:
FAK = target: T1, FAK (Homo sapiens, UniProt Q05397); assay: Western blot degradation of FAK; format: cell-based; conditions: A549 Cell; 24 hours
T1 construct: expression of target proteins in cells; endogenous in cells
T1 sequence (Q05397 whole entry): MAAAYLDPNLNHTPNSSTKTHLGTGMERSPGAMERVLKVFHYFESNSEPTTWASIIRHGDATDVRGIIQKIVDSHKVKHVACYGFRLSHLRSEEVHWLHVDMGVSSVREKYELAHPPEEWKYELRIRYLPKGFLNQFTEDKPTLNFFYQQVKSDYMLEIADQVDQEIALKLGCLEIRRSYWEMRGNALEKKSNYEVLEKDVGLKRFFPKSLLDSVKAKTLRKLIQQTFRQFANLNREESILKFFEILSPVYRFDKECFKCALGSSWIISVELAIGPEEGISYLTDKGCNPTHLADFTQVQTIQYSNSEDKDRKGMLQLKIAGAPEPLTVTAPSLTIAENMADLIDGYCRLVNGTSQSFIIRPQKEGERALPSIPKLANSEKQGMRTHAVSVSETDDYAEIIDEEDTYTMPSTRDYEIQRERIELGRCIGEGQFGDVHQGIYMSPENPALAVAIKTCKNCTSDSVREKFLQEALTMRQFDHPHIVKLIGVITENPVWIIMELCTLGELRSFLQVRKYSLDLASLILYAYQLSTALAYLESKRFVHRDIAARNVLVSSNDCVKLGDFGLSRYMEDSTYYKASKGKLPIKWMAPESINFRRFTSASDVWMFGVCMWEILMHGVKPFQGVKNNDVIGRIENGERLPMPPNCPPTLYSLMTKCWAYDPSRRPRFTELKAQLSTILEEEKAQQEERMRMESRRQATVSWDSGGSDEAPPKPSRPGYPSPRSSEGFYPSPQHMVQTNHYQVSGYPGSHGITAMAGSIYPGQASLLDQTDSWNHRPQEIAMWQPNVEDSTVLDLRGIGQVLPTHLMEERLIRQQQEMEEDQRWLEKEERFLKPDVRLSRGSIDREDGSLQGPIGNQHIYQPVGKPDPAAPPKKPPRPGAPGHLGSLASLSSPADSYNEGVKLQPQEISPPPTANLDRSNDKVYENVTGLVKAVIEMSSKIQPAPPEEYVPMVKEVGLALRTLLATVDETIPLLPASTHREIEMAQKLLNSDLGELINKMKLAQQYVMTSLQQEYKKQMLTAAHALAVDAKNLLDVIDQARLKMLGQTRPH
Procedure: (§1) Conventional Western blot assay was performed to evaluate the effects of the compounds of the present disclosure on the expression of target proteins in cells.
(§2) (1) Cell Seeding and Protein Harvesting: The selected cells were processed according to the cell seeding procedure and protein harvesting procedure in Table II-2.
(§3) (2) To the collected supernatant, 5×SDS sample loading buffer was added, followed by denaturation at 95 °C for 5 minutes. The denatured samples were then separated by SDS-PAGE electrophoresis on a polyacrylamide gel. Proteins were transferred to a nitrocellulose membrane (0.45 μm NC membrane), blocked with blocking buffer at room temperature for 1 hour, and subjected to antibody incubation and development procedures according to the antibody manufacturer's instructions (Cell Signaling Technology).
(§4) Half-Maximal Degradation Concentration value (the drug concentration required for degrading proteins by 50%, abbreviated as DC50) reads method: comparing the grayscale values of Western blot bands from drug-treated samples with those from blank DMSO-treated controls, and identifying the drug concentration range at which the grayscale value is half that of the DMSO-treated control bands.
(§5) DC50 values can be calculated using ImageJ software to measure grayscale values of Western blot bands from drug-treated samples. The concentration-response curve is fitted to estimate the drug concentration corresponding to half the grayscale value.
(§6) Target protein remaining (%) refers to the percentage of target protein remaining in cells after treatment with protein degrader compounds.
(§7) Calculation method for target protein remaining (%): Use ImageJ software to measure grayscale values of Western blot bands from drug (protein degrader)-treated samples. The grayscale value of drug-treated bands is divided by that of internal control protein bands, and the resulting quotient is normalized to obtain the relative percentage of remaining target protein after protein degrader treatment.
(§8) Target protein degradation rate (%)=1−target protein remaining (%).

[1] = test system: Human Multiple myeloma cell line (MM.1S); assay: Inhibition of MM.1S cell proliferation (CellTiter luminescent viability); format: cell-based; conditions: Homo sapiens, MM1.S, 96 hours; for inhibition at 0.01 µM: 10 nM, read-out: Inhibition Rate at 10 nM (%); for inhibition at 0.5 µM: 500 nM, read-out: Inhibition Rate at 500 nM (%)
In short: (§9)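 Cells are seeded in 96-well plates, cultured at 37 °C, 5% CO2, and treated next day with 5-fold serial compound dilutions (stock series from 2000 μM; 0.5 μL into 100 μL medium). Viability is read by CellTiter-Meiluncell luminescence after the set exposure, and IC50 is taken from growth-inhibition curves.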

C-ABL = target: T2, C-ABL (Homo sapiens, UniProt P00519); assay: Western blot degradation of C-ABL; format: cell-based; conditions: K562 Cell; 24 hours
T2 construct: K562 also holds p210 BCR-ABL (BCR P11274 fused to ABL1)
T2 sequence (P00519 whole entry, the tested form may be a part): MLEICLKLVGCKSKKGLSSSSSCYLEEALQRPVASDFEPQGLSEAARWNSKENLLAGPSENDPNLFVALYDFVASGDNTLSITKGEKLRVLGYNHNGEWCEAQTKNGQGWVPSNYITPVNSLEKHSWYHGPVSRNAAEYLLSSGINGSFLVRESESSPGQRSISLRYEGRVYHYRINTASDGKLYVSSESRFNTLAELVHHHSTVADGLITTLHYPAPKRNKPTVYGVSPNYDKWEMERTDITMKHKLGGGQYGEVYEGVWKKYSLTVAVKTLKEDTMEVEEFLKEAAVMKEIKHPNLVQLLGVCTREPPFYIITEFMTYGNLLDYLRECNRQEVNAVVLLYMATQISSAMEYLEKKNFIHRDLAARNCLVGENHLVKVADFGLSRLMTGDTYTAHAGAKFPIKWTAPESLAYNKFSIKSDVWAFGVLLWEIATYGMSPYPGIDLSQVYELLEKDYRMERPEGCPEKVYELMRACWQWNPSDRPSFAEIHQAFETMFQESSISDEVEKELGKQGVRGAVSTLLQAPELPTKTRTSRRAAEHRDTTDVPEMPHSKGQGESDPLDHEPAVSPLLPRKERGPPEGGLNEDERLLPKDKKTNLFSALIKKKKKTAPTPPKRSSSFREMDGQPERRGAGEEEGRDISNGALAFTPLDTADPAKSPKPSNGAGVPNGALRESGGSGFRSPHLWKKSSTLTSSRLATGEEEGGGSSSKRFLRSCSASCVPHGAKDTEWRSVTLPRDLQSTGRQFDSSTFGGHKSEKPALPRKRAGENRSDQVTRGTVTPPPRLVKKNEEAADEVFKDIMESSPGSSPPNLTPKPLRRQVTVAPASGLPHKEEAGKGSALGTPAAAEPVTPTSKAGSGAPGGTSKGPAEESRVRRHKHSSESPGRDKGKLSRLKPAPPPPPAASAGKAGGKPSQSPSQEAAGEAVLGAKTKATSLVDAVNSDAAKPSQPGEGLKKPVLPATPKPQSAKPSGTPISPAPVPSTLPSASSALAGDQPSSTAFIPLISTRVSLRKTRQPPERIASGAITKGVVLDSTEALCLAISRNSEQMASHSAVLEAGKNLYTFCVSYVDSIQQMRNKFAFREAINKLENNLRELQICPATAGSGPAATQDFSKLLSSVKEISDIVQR
T2 sequence (Q96SW2 whole entry partner, the tested form may be a part): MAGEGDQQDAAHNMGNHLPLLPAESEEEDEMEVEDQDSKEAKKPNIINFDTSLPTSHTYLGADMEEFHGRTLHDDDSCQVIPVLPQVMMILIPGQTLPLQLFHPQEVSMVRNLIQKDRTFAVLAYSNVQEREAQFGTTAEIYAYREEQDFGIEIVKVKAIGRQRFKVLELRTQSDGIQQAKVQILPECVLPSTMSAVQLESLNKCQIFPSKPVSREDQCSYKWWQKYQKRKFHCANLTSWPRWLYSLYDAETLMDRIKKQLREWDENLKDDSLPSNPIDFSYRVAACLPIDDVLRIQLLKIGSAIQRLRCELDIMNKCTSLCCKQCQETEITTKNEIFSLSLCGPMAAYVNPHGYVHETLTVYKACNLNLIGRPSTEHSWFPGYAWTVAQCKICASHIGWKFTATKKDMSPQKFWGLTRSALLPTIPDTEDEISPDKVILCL
Procedure: as §1, §2, §3, §4, §5, §6, §7, §8

[2] = test system: Human acute lymphocytic leukemia T lymphocytes cell line (CCRF-CEM); assay: Inhibition of CCRF-CEM cell proliferation (CellTiter luminescent viability); format: cell-based; conditions: Homo sapiens, 96 h, Table IL3, BCR-ABL inhibitor-based; for inhibition at 0.01 µM: 10 nM, read-out: Inhibition Rate at 10 nM (%); for inhibition at 0.5 µM: 500 nM, read-out: Inhibition Rate at 500 nM (%)
[3] = test system: Human myeloid monocytic leukemia cell line (MV-4-11); assay: Inhibition of MV-4-11 cell proliferation (CellTiter luminescent viability); format: cell-based; conditions: Homo sapiens, MV4-11, 96 hours; for inhibition at 0.01 µM: MV-4-11, 10 nM, read-out: Inhibition Rate at 10 nM (%); for inhibition at 0.5 µM: MV-4-11, 500 nM, read-out: Inhibition Rate at 500 nM (%)
In short: as §9

[4] = target: T3, human Cereblon WT GST-tagged protein (CRBN) (Homo sapiens, UniProt Q96SW2); assay: CRBN binding by HTRF (Cereblon binding kit)
T3 construct: purchased CISBIO 64BDCRBNPEH
T3 sequence (Q96SW2 whole entry): as the sequence (Q96SW2 whole entry partner, the tested form may be a part) above
In short: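 GST-tagged human Cereblon WT was incubated 3 h at room temperature with compound, thalidomide-Re tracer and Eu anti-GST antibody. Final compound concentrations were 10 to 0.00064 µM (7 points) or 2 and 0.5 µM. Inhibition rate was calculated from HTRF 665/620 nm ratios versus solvent and blank controls.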

[5] = Table IL1, BCR-ABL inhibitor-based
[6] = Table IL2, BCR-ABL inhibitor-based

Degradation of substrate protein FAK (substrate protein remaining %) (FAK): A (0%≤substrate protein remaining %≤80%)
SMILES: CNC(=O)c1ccccc1Nc1cc(Nc2ccc(N3CCN(Cc4ccc5c(c4)C(=O)N(N4CCC(=O)NC4=O)C5=O)CC3)cc2OC)ncc1C(F)(F)F [GT-07661, 2-((2-((4-(4-((2-(2,4-dioxotetrahydropyrimidin-1(2H)-yl)-1,3-dioxoisoindolin-5-yl)methyl)piperazin-1-yl)-2-methoxyphenyl)amino)-5-(trifluoromethyl)pyridin-4-yl)amino)-N-methylbenzamide]
inhibition at 0.01 µM ([1]; Table IG1, FAK inhibitor-based): 30 to 40%
inhibition at 0.5 µM ([1]; Table IG1, FAK inhibitor-based): 40 to 60%

Degradation of substrate protein C-ABL; BCR-ABL (substrate protein remaining %) (C-ABL): A (0%≤substrate protein remaining %≤80%)
SMILES: Cc1ccc(C(=O)Nc2ccc(CN3CCN(Cc4ccc5c(c4)CN(N4CCC(=O)NC4=O)C5=O)CC3)c(C(F)(F)F)c2)cc1C#Cc1cnc2cccnn12 [GT-08216, N-(4-((4-((2-(2,4-dioxotetrahydropyrimidin-1(2H)-yl)-1-oxoisoindolin-5-yl)methyl)piperazin-1-yl)methyl)-3-(trifluoromethyl)phenyl)-3-(imidazo[1,2-b]pyridazin-3-ylethynyl)-4-methylbenzamide]
inhibition at 0.01 µM [1, 5]: 20 to 30%
inhibition at 0.5 µM [1, 5]: 80 to 100%
inhibition at 0.01 µM [2]: 20 to 30%
inhibition at 0.5 µM [2]: 80 to 100%
inhibition at 0.01 µM [3, 6]: 80 to 100%
inhibition at 0.5 µM [3, 6]: 80 to 100%

Degradation of substrate protein FAK (substrate protein remaining %) (FAK): A (0%≤substrate protein remaining %≤80%)
SMILES: CNC(=O)c1ccccc1Nc1cc(Nc2cc(C)c(C3CCN(CC4CCN(c5cccc6c5C(=O)N(N5CCC(=O)NC5=O)C6=O)CC4)CC3)cc2OC(C)C)ncc1C(F)(F)F [GT-07666, 2-((2-((4-(1-((1-(2-(2,4-dioxotetrahydropyrimidin-1(2H)-yl)-1,3-dioxoisoindolin-4-yl)piperidin-4-yl)methyl)piperidin-4-yl)-2-isopropoxy-5-methylphenyl)amino)-5-(trifluoromethyl)pyridin-4-yl)amino)-N-methylbenzamide]

Degradation of substrate protein FAK (substrate protein remaining %) (FAK): A (0%≤substrate protein remaining %≤80%)
Inhibition Rate at 0.5 μM (%) ([4]; 0.5 μM): a3 (30% < a3 ≤ 40%)
Inhibition Rate at 2 μM (%) ([4]; 2 μM): a5 (53% < a5 ≤ 60%)
SMILES: CS(=O)(=O)c1cccc(CNc2nc(Nc3ccc(N4CCN(Cc5ccc6c(c5)CN(N5CCC(=O)NC5=O)C6=O)CC4)cc3)ncc2C(F)(F)F)c1 [GT-07514, 1-(5-((4-(4-((4-((3-(methylsulfonyl)benzyl)amino)-5-(trifluoromethyl)pyrimidin-2-yl)amino)phenyl)piperazin-1-yl)methyl)-1-oxoisoindolin-2-yl)dihydropyrimidine-2,4 (1H,3H)-dione]
inhibition at 0.01 µM ([3]; Table IG2, FAK inhibitor-based): 30 to 40%
inhibition at 0.5 µM ([3]; Table IG2, FAK inhibitor-based): 80 to 100%

Degradation of substrate protein FAK (substrate protein remaining %) (FAK): A (0%≤substrate protein remaining %≤80%)
SMILES: CNC(=O)c1ccccc1Nc1cc(Nc2cc(C)c(C3CCN(CC4CCN(c5ccc6c(c5)C(=O)N(N5CCC(=O)NC5=O)C6=O)CC4)CC3)cc2OC(C)C)ncc1C(F)(F)F [GT-07665, 2-((2-((4-(1-((1-(2-(2,4-dioxotetrahydropyrimidin-1(2H)-yl)-1,3-dioxoisoindolin-5-yl)piperidin-4-yl)methyl)piperidin-4-yl)-2-isopropoxy-5-methylphenyl)amino)-5-(trifluoromethyl)pyridin-4-yl)amino)-N-methylbenzamide]

Degradation of substrate protein C-ABL; BCR-ABL (substrate protein remaining %) (C-ABL): A (0%≤substrate protein remaining %≤80%)
SMILES: O=C1CCN(N2C(=O)c3ccc(N4CCC(CN5CCN(C6CCN(c7ncc(C(=O)Nc8ccc(OC(F)(F)Cl)cc8)cc7-c7cc[nH]n7)CC6)CC5)CC4)cc3C2=O)C(=O)N1 [GT-08360, N-(4-(chlorodifluoromethoxy)phenyl)-6-(4-(4-((1-(2-(2,4-dioxotetrahydropyrimidin-1(2H)-yl)-1,3-dioxoisoindolin-5-yl)piperidin-4-yl)methyl)piperazin-1-yl)piperidin-1-yl)-5-(1H-pyrazol-3-yl)nicotinamide]
inhibition at 0.01 µM [1, 5]: 5 to 10%
inhibition at 0.5 µM [1, 5]: 20 to 30%
inhibition at 0.01 µM [2]: 20 to 30%
inhibition at 0.5 µM [2]: 30 to 40%

Degradation of substrate protein FAK (substrate protein remaining %) (FAK): A (0%≤substrate protein remaining %≤80%)
SMILES: CS(=O)(=O)c1cccc(CNc2nc(Nc3ccc(N4CCN(CC5CCN(c6cccc7c6C(=O)N(N6CCC(=O)NC6=O)C7=O)CC5)CC4)cc3)ncc2C(F)(F)F)c1 [GT-07471, 2-(2,4-dioxotetrahydropyrimidin-1(2H)-yl)-4-(4-((4-(4-((4-((3-(methylsulfonyl)benzyl)amino)-5-(trifluoromethyl)pyrimidin-2-yl)amino)phenyl)piperazin-1-yl)methyl)piperidin-1-yl)isoindoline-1,3-dione]

Degradation of substrate protein FAK (substrate protein remaining %) (FAK): A (0%≤substrate protein remaining %≤80%)
SMILES: CS(=O)(=O)c1cccc(CNc2nc(Nc3ccc(N4CCN(CC5CCN(c6ccc7c(c6)C(=O)N(N6CCC(=O)NC6=O)C7=O)CC5)CC4)cc3)ncc2C(F)(F)F)c1 [GT-07470, 2-(2,4-dioxotetrahydropyrimidin-1(2H)-yl)-5-(4-((4-(4-((4-((3-(methylsulfonyl)benzyl)amino)-5-(trifluoromethyl)pyrimidin-2-yl)amino)phenyl)piperazin-1-yl)methyl)piperidin-1-yl)isoindoline-1,3-dione]
